Results taken from PMC5041077, “Metabolic profile and safety of piperlongumine” (Scientific Reports, 2016).
pIC50, pKi: −log10 of the molar value.

What was measured:
[1] = Piperlongumine microsomal protein binding (ultrafiltration); assay type: in vitro ADME; conditions: human, pooled human liver microsomes; PPL 127.70 μM; read-out: fumic (free fraction of the compound in the microsomal incubation)
Procedure: Piperlongumine-protein binding. An in vitro study with a microsomal and plasma protein was carried out using a concentration of PPL approximately corresponding to its S50 (n = 3). The plasma protein binding was evaluated to predict the in vivo clearance, using a plasma protein concentration of 42 mg/mL. The samples were incubated with pooled human liver microsomes at 37 °C as described in section above. The same V0 conditions obtained (protein concentration and incubation time) were applied in this study, but in the absence of the cofactor NADPH. Furthermore, a control sample without protein was analyzed simultaneously for comparison purposes. These mixtures were added to the centrifugal filter device (Microcon YM-30, 30,000 molecular weight cut-off; Millipore Corporation, Bedford, MA, USA) and centrifuged at 21800 x g for 30 min at 37 °C (Hitachi CF16RXII, Himac, Tokyo, Japan). The ultra-filtrate was directly assayed by high-performance liquid chromatography at the conditions previously described.

CYP1A2 = CYP1A2 (Homo sapiens, UniProt P05177); test: Inhibition of CYP1A2 by piperlongumine (dose-dependent, Ki); assay type: in vitro ADME
Procedure: In the assay of PPL inhibition in reversible manner, human liver microsomes (0.3 mg/mL final concentration) were the last reagent added into the incubation system to initiate the reaction; after 30 min the reaction was terminated by adding 2 mL of ethyl acetate. Caffeine (64 μM) was added as internal standard and samples were shaken for 10 min at 1500 rpm and centrifuged for 5 min at 2860x g. The organic layers (1.8 mL) were evaporated to dryness under a stream of compressed air at room temperature. The residues were dissolved in 80 μL of the mobile phase and injected in HPLC.
The kinetic parameters were calculated from nonlinear regression using GraphPad Prism Version 3.03 (San Diego, CA, USA). The Intrinsic Clearance (CLint) was obtained considering the Hill coefficient. The Unbounded Intrinsic Clearance (CLuint), Predicted in vivo Clearance (CL) and Hepatic Clearance (CLH) were determined according to Subramarian and Tracy[15] and Austin et al.[17]. Hepatic extraction ratio was calculated according to Kashuba et al.[21]. Dose-dependent inhibition parameters were determined employing SigmaPlot version 12.0 (Chicago, IL, USA). The Lineweaver-Burk plot was used to determine the inhibition profile. […] The parameters kinact and KI in time-dependent inhibition were calculated employing GraphPad Prism Version 3.03.

[2] = Piperlongumine stability assay (microsomal medium); assay type: physicochemical
Procedure: Method validation protocol and results. The quantification method of PPL was validated by following the European Medicines Agency (EMA) guidelines. Analytical curves were obtained by spiking 200 µL aliquots of HLM with PPL 0.38; 0.95; 9.45; 141.80; 236.34 and 283.61 µM. The linearity was carried out and assessed in triplicate. The linearity was determined using the correlation coefficient (r), the F test for lack-of-fit and a p value of 0.05. The MINITAB Release version 14.1 software (State College, PA, USA) was used to conduct the statistical analysis (Table S1). Carbamazepine (2120 µM) was used as internal standard, and the ratio of the peak area of the PPL and carbamazepine was defined as the analytical response. The lower limit of quantification (LLQ) was obtained by spiking the incubation mixture samples at a concentration of 0.38 µM. The selectivity of the method was assured by analyzing the standard solutions of reagents and the blank HLM (Fig. S1). The absolute recovery (%) was performed at three different concentrations: 0.95, 141.8, 212.7 µM. The recovery was expressed as the percentage of the extracted amount, by comparing the areas from the samples subjected to the extraction procedure with the areas from the analysis of standard solutions of the same concentration that were not submitted to the extraction process. To assess the within-day precision and accuracy, replicate analyzes (n = 5) of 200 µL of microsomal medium spiked at concentrations 0.38, 0.95; 141.8 and 236.3 µM was analyzed in a single day. For between-day assays, samples at the same concentration described above were analyzed for three consecutive days (n = 5) (Table S2). These samples were quantified using a new calibration curve prepared daily. The stability assays were performed to evaluate the PPL stability at three different conditions: (i) at room temperature (25 °C ± 2 °C, for 4 h), (ii) at incubation conditions (37 °C, for 60 min) and (iv) in the autosampler equipment (25 °C ± 2 °C, for 24 h). These assays aimed to evaluate the stability of PPL during sample preparation, during the metabolism reaction and during the analysis, respectively. […] The peak area obtained from the stability assays was quantified using a fresh analytical curve prepared daily. The samples were considered stable when the relative error (RE, %) from the nominal concentration was within ±15% and when the relative standard deviation (RSD%) was below 15% (Table S3).

CYP3A4 = CYP3A4 (Homo sapiens, UniProt P08684); test: biochemical
[3] = Predicted in vivo parameters (in vitro-in vivo scaling); assay type: in vitro ADME, human
Procedure: In vitro-in vivo scaling has been proposed by some authors. […] PPL microsome and plasma bindings were 23% and 93%, respectively. The predicted parameters, Intrinsic Clearance (CLint), Unbounded Intrinsic Clearance (CLuint), Predicted in vivo Clearance (CL), Hepatic Clearance (CLH) and Hepatic Extraction Ratio (E), are expressed in Table 1.
The kinetic parameters were calculated from nonlinear regression using GraphPad Prism Version 3.03 (San Diego, CA, USA). The Intrinsic Clearance (CLint) was obtained considering the Hill coefficient. The Unbounded Intrinsic Clearance (CLuint), Predicted in vivo Clearance (CL) and Hepatic Clearance (CLH) were determined according to Subramarian and Tracy[15] and Austin et al.[17]. Hepatic extraction ratio was calculated according to Kashuba et al.[21]. Dose-dependent inhibition parameters were determined employing SigmaPlot version 12.0 (Chicago, IL, USA). The Lineweaver-Burk plot was used to determine the inhibition profile. The second plot of slopes from Lineweaver-Burk plot versus PPL concentrations was utilized to calculate the Ki. The parameters kinact and KI in time-dependent inhibition were calculated employing GraphPad Prism Version 3.03.

CYP1A2, sequence (P05177 whole entry): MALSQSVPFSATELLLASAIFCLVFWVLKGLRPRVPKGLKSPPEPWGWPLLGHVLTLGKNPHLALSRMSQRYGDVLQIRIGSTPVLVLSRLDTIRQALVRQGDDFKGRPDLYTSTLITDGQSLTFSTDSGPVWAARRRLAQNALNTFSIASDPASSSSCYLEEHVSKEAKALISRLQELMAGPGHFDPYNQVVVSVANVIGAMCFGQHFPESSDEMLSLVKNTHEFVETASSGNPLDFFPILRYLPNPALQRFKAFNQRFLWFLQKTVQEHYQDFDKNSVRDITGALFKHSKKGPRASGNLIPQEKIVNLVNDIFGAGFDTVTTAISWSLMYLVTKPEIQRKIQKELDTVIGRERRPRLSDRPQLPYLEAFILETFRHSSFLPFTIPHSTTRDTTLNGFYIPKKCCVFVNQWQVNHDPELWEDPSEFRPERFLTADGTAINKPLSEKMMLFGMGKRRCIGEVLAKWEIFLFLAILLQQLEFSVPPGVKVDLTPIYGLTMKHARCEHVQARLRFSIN
CYP3A4, sequence (P08684 whole entry): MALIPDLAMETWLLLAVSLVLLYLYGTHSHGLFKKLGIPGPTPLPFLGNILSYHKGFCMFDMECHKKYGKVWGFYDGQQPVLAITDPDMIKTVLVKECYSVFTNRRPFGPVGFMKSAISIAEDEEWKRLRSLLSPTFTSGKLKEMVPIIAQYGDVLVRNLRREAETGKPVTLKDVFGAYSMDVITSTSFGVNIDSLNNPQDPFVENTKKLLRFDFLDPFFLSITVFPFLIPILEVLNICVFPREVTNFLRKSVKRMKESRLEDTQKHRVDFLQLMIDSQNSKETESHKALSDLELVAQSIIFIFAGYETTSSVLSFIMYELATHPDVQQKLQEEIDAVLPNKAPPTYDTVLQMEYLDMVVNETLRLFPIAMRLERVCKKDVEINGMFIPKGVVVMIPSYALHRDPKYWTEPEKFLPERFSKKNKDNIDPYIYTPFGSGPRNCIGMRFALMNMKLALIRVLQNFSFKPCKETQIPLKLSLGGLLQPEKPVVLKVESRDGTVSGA

COc1cc(/C=C/C(=O)N2CCC=CC2=O)cc(OC)c1OC [PPL, Piperlongumine]
fraction unbound at 127.7 μM [1]: 0.76 | pKi (CYP1A2): 5.82 | mode of inhibition (CYP1A2; Lineweaver-Burk plot): competitive type | stability, RE (%) from nominal concentration ([2]; 37°C (1h), PPL 0.95 µM): 0.6% | stability, RE (%) from nominal concentration ([2]; 37°C (1h), PPL 212.7 µM): 0.0% | stability, RE (%) from nominal concentration ([2]; Auto injector (24 hs), PPL 0.95 µM): -4.0% | stability, RE (%) from nominal concentration ([2]; Auto injector (24 hs), PPL 212.7 µM): 0.0% | stability, RE (%) from nominal concentration ([2]; Room temperature (4 hs), PPL 0.95 µM): 0.6% | stability, RE (%) from nominal concentration ([2]; Room temperature (4 hs), PPL 212.7 µM): 6.0% | pIC50 (CYP3A4): < 4.00 | Hepatic Extraction (E) [3]: 0.09 | Predicted in Vivo Clearance (CL) ([3]; 40 mg microsomes/g liver, 20 g liver/kg body weight): 19.79 mL/min/kg | Unbounded Intrinsic Clearance (CLuint) ([3]; corrected for fumic): 29.84 µL/min/mg | Intrinsic Clearance (CLint) ([3]; from HLM kinetic data considering the Hill coefficient): 22.68 µL/min/mg | Hepatic Clearance (CLH) ([3]; liver blood flow 20 mL/min/kg): 1.89 mL/min/kg
